Earlier results in patent publication US4606909A, “Pharmaceutical multiple-units formulation” (priority 1981, dated 1986).

Conditions: ambient temperature

| SMILES | parts by volume of water required to dissolve 1 part by weight of the substance |
| --- | --- |
| CC(=O)S[C@@H]1CC2=CC(=O)CC[C@]2(C)[C@H]2CC[C@@]3(C)[C@@H](CC[C@@]34CCC(=O)O4)[C@H]12 [spironolactone] | more than 1000 parts by volume of water |
| C[C@]12CC[C@H]3[C@@H](CCC4=CC(=O)CC[C@@]43C)[C@@H]1CC[C@@H]2O [testosterone] | more than 1000 parts by volume of water |
| CCCCNC(=O)NS(=O)(=O)c1ccc(C)cc1 [tolbutamide] | more than 1000 parts by volume of water |
